This note sets out measurements from patent US20240400553A1, “AMINE BASED MATRIPTASE 2 INHIBITORS AND USES THEREOF” (Disc Medicine, Inc., priority 2023, published 2024).

Some results are limits rather than exact numbers.

One experiment addresses T1, Human Recombinant Matriptase 2 (Homo sapiens, UniProt Q8IU80).
T1 construct: made in house
T1 sequence (Q8IU80 1-811): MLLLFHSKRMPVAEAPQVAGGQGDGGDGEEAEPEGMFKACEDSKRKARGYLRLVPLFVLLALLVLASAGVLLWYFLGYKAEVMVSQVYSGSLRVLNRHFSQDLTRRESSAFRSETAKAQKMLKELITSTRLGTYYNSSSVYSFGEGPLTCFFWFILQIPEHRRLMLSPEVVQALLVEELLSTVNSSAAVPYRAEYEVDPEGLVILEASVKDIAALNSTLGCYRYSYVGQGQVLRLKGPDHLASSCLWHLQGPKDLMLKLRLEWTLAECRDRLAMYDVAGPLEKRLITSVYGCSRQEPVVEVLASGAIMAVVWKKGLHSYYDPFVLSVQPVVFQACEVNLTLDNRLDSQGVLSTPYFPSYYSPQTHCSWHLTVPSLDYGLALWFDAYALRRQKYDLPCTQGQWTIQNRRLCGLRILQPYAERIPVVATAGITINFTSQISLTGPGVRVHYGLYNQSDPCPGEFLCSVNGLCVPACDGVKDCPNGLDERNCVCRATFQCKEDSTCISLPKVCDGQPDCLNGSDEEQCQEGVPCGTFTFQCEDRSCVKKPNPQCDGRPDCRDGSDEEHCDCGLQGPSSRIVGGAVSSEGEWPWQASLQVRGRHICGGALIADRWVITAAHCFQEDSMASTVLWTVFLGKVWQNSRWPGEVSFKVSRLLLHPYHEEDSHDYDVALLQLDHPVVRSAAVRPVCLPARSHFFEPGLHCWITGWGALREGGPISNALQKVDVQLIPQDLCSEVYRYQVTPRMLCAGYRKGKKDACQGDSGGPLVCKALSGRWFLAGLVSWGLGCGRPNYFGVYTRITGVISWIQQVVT
In words: Matriptase 2 inhibition, fluorescence based assay (Method I). Format: biochemical. The following applies: Table A; Ki of Matriptase-2; read-out: Mat-2 Ki. In short, it runs like this:
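Fluorogenic readout (Ex 360/Em 480 nm) taken 60 min after adding 62 μM Boc-Gln-Ala-Arg-AMC, following 30-min enzyme–compound preincubation at 25 °C. Conditions: 3.5 nM in-house enzyme, pH 7.5 Tris/NaCl/gelatin buffer, 1% DMSO; percent inhibition versus concentration fitted by variable-slope sigmoidal regression.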
Turning to `CC(C)(C)n1ccnc1COC(=O)c1cc2ccc(CN)nc2n1Cc1cc(NS(=O)(=O)Cc2ccccc2)cc2ccccc12` [Compound 46, (1-tert-butyl-1H-imid-azol-2-yl)methyl 6-(aminomethyl)-1-{[3-(phenylmethanesulfon-amido)naphthalen-1-yl]-methyl}-1H-pyrrolo[2,3-b]pyridine-2-carboxylate], the Ki is not above 100 nM. As for `NCc1ccc2cc(C(=O)OCCS(N)(=O)=O)n(Cc3cc(NS(=O)(=O)Cc4ccccc4)cc4ccccc34)c2n1` [Compound 84, 2-sulfamoylethyl 6-(aminomethyl)-1-{[3-(phenylmethanesulfon-amido)naphthalen-1-yl]-methyl}-1H-pyrrolo[2,3-b]pyridine-2-carboxylate], the Ki fell in the range of 100 to 500 nM. As to `NCc1ccc2cc(C(=O)OCC34CCN(CC3)CC4)n(Cc3cc(NS(=O)(=O)Cc4ccccc4)cc4ccccc34)c2n1` [Compound 19, {1-azabicyclo[2.2.2]-octan-4-yl}methyl 6-(aminomethyl)-1-{[3-(phenylmethanesulfon-amido)naphthalen-1-yl]-methyl}-1H-pyrrolo[2,3-b]pyridine-2-carboxylate], the Ki was not above 100 nM. For the compound `CC(C)n1nccc1COC(=O)c1cc2ccc(CN)nc2n1Cc1cc(NS(=O)(=O)Cc2ccccc2)cc2ccccc12` [Compound 111, [1-(propan-2-yl)-1H-pyrazol-5-yl]methyl 6-(aminomethyl)-1-{[3-(phenylmethanesulfon-amido)naphthalen-1-yl]-methyl}-1H-pyrrolo-[2,3-b]pyridine-2-car-boxylate], the inhibitory constant (Ki) was in the range of 100 to 500 nM. For the compound `NCCOC(=O)c1cc2ccc(CN)nc2n1Cc1cc(NS(=O)(=O)Cc2ccccc2)cc2ccccc12` [Compound 91, 2-aminoethyl 6-(amino-methyl)-1-{[3-(phenyl-methanesulfonamido)naphthalen-1-yl]methyl}-1H-pyrrolo[2,3-b]pyr-idine-2-carboxylate], the Ki fell in the range of 100 to 500 nM. Same read-out and setting: in the case of `CN1CCC(CNC(=O)c2cc3ccc(CN)nc3n2Cc2cc(NS(=O)(=O)Cc3ccccc3)cc3ccccc23)CC1` [Compound 12, 6-(aminomethyl)-N-[(1-methylpiperidin-4-yl)-methyl]-1-{[3-(phenyl-methanesulfonamido)-naphthalen-1-yl]meth-yl}-1H-pyrrolo[2,3-b]-pyridine-2-carboxamide] it was not above 100 nM; in that of `CCOC(=O)c1cc2ccc(CN)nc2n1Cc1cc(NS(=O)(=O)Cc2ccccc2)cc2ccccc12` [Compound 115, ethyl 6-(aminomethyl)-1-{[3-(phenylmethanesul-fonamido)naphthalen-1-yl]methyl}-1H-pyrrolo-[2,3-b]pyridine-2-car-boxylate], 500 to 3000 nM; in that of `CCC1(COC(=O)c2cc3ccc(CN)nc3n2Cc2cc(NS(=O)(=O)Cc3ccccc3)cc3ccccc23)CCN(C)CC1` [Compound 31, (4-ethyl-1-methylpiper-idin-4-yl)methyl 6-(aminomethyl)-1-{[3-(phenylmethanesulfon-amido)naphthalen-1-yl]-methyl}-1H-pyrrolo[2,3-b]pyridine-2-carboxylate], not above 100 nM.

Regarding `Cc1oc(=O)oc1COC(=O)c1cc2ccc(CN)nc2n1Cc1cc(NS(=O)(=O)Cc2ccsc2)cc2ccccc12` [Compound 178, (5-methyl-2-oxo-2H-1,3-dioxol-4-yl)methyl 6-(aminomethyl)-1-({3-[(thiophen-3-yl)methane-sulfonamido]naphthalen-1-yl}methyl)-1H-pyr-rolo[2,3-b]pyridine-2-carboxylate], the Ki was in the range of 100 to 500 nM. Same read-out and setting: in the case of `CN(CCOC(=O)c1cc2ccc(CN)nc2n1Cc1cc(NS(=O)(=O)Cc2ccccc2)cc2ccccc12)C(=O)OC(C)(C)C` [Compound 122, 2-{[(tert-butoxy)carbon-yl](methyl)amino}ethyl 6-(aminomethyl)-1-{[3-(phenylmethanesulfon-amido)naphthalen-1-yl]-methyl}-1H-pyrrolo[2,3-b]pyridine-2-carboxylate] it was 500 to 3000 nM.

Still in this experiment, the particulars now being: Table A; Ki of Matriptase-2 given as class symbols; read-out: Mat-2 Ki.
Regarding `COCCN1CCN(CCS(=O)(=O)Nc2cc(Cn3c(C(=O)O)cc4ccc(CN)nc43)c3ccccc3c2)CC1` [Compound 234, 6-(aminomethyl)-1-[(3-{2-[4-(2-methoxyethyl)-piperazin-1-yl]ethane-sulfonamido}naphthalen-1-yl)methyl]-1H-pyr-rolo[2,3-b]pyridine-2-carboxylic acid], the Ki lay within 100 to 500 nM.

`CN1CCC(COC(=O)c2cc3ccc(CN)nc3n2Cc2cc(NS(=O)(=O)CC3CCNCC3)cc3ccccc23)CC1` [Compound 249, (1-methylpiperidin-4-yl)methyl 6-(amino-methyl)-1-({3-{(piperi-din-4-yl)methanesul-fonamido]naphthalen-1-yl}methyl)-1H-pyr-rolo[2,3-b]pyridine-2-carboxylate]: the Ki is 500 to 3000 nM. Consider `NCc1ccc2cc(C(=O)O)n(Cc3cc(NS(=O)(=O)Cc4ccccc4)cc4ccccc34)c2c1` [Compound 370, 6-(aminomethyl)-1-((3-((phenylmethyl)sulfonamido)naphthalen-1-yl)methyl)-1H-indole-2-carboxylic acid], for which the Ki was not above 100 nM. As to `Cc1cc(CS(=O)(=O)Nc2cc(Cn3c(C(=O)O)cc4ccc(CN)nc43)c3ccccc3c2)no1` [Compound 250, 6-(aminomethyl)-1-({3-[(5-methyl-1,2-oxazol-3-yl)methanesulfon-amido]naphthalen-1-yl}-methyl)-1H-pyrrolo[2,3-b]pyridine-2-carboxylic acid], the Ki lay within 500 to 3000 nM. In the case of `CN1CCC(COC(=O)c2cc3ccc(CN)nc3n2Cc2cc(NS(=O)(=O)Cc3cnsc3)cc3ccccc23)CC1` [Compound 210, (1-methylpiperidin-4-yl)-methyl 6-(aminomethyl)-1-({3-[(1,2-thiazol-4-yl)-methanesulfonamido]-naphthalen-1-yl}methyl)-1H-pyrrolo[2,3-b]pyr-idine-2-carboxylate], the Ki is not above 100 nM. On to `CS(=O)(=O)N1CCC(CNC(=O)Nc2cc(Cn3c(C(=O)O)cc4ccc(CN)nc43)c3ccccc3c2)CC1` [Compound 293, 6-(aminomethyl)-1-{[3-({[(1-methanesulfonyl-piperidin-4-yl)methyl]-carbamoyl}amino)naph-thalen-1-yl]methyl}-1H-pyrrolo[2,3-b]pyridine-2-carboxylic acid], for which the Ki was 100 to 500 nM. Consider `COc1ccc(Cl)cc1CS(=O)(=O)Nc1cc(Cn2c(C(=O)O)cc3ccc(CN)nc32)c2ccccc2c1` [Compound 247, 6-(aminomethyl)-1-({3-[(5-chloro-2-methoxy-phenyl)methanesulfon-amido]naphthalen-1-yl}-methyl)-1H-pyrrolo[2,3-b]pyridine-2-carboxylic acid], for which the Ki lay in the range of 500 to 3000 nM. `NCc1ccc2cc(C(=O)Nc3nnn[nH]3)n(Cc3cc(NS(=O)(=O)CC[C@@H]4CCCN4)cc4ccccc34)c2n1` [Compound 208, 6-(aminomethyl)-1-[(3-(2-[(2S)-pyrrolidin-2-yl]ethanesulfonamido}-naphthalen-1-yl)methyl]-N-(1H-1,2,3,4-tetrazol-5-yl)-1H-pyrrolo[2,3-b]-pyridine-2-carboxamide]: the Ki is not above 100 nM. Consider `NCc1ccc2cc(C(=O)O)n(Cc3cc(NS(=O)(=O)Cc4cncnc4)cc4ccccc34)c2n1` [Compound 231, 6-(aminomethyl)-1-({3-[(pyrimidin-5-yl)methane-sulfonamido]naphthalen-1-yl}methyl)-1H-pyr-rolo[2,3-b]pyridine-2-carboxylic acid], for which the Ki was in the range of 100 to 500 nM. Still for that read-out and setting: in the case of `NCc1ccc2cc(C(=O)O)n(Cc3cc(CS(=O)(=O)Cc4ccccc4)cc4ccccc34)c2n1` [Compound 252, 6-(aminomethyl)-1-{[3-(phenylmethanesulfon-ylmethyl)naphthalen-1-yl]methyl}-1H-pyrrolo-[2,3-b]pyridine-2-car-boxylic acid] it was 500 to 3000 nM; in that of `CCOC(=O)c1cc2ccc(CNC(=O)c3ccccc3COC(C)=O)nc2n1Cc1cc(NS(=O)(=O)Cc2ccccc2)cc2ccccc12` [Compound 358, ethyl 6-[({2-[(acetyl-oxy)methyl]phenyl}-formamido)methyl]-1-{[3-(phenylmethane-sulfonamido)naphthalen-1-yl]methyl}-1H-pyr-rolo[2,3-b]pyridine-2-carboxylate], 500 to 3000 nM. On the same count and under the same terms, in the case of `NCc1ccc2cc(C(=O)O)n(Cc3cc(NS(=O)(=O)CC4CCNCC4)cc4ccccc34)c2n1` [Compound 216, 6-(aminomethyl)-1-({3-[(piperidin-4-yl)methane-sulfonamido]naphthalen-1-yl}methyl)-1H-pyr-rolo[2,3-b]pyridine-2-carboxylic acid] it was 100 to 500 nM.

Still in this experiment, the particulars now being: Table B; Human Recombinant Matriptase 2, 3.5 nM enzyme, 62 μM substrate, 30 mins preincubation; read-out: Mean Ki.
Turning to `CN1CCC(CCOC(=O)c2cc3ccc(CN)nc3n2Cc2cc(NS(=O)(=O)Cc3ccccc3)cc3c2CCCC3)CC1` [Compound 2.15], the Ki is not above 100 nM.
